PMC5316935, “Mangiferin from Pueraria tuberosa reduces inflammation via inactivation of NLRP3 inflammasome” (Scientific Reports, 2017)

Tested on: T1, COX-2
T1 construct: gene Ptgs2
Experiment: chromogenic TMPD oxidation assay of COX-2 activity; RAW […] cells per figure legend
Format: biochemical

IC50: 40 µM
SMILES: O=c1c2cc(O)c(O)cc2oc2cc(O)c([C@@H]3O[C@H](CO)[C@@H](O)[C@H](O)[C@H]3O)c(O)c12 [PT-Mangiferin, Mangiferin]
